Laboratory results: patent US5378725A, “Inhibition of phosphatidylinositol 3-kinase with wortmannin and analogs thereof” (The Arizona Board of Regents, priority 1993, dated 1995)
Where two headings read alike, the source gives them in different places.

Tests used:
[1] = target: T1, purified bovine brain PI 3-kinase (Bos taurus, UniProt P32871); experiment: Assay of purified PI 3-kinase activity (32P incorporation into phosphatidylinositol, TLC/scintillation); format: biochemical; conditions: bovine brain purified PI 3-kinase
T1 construct: PI 3-kinase was prepared from bovine brain; from tissue; host or cells: bovine brain
T1 sequence (P32871 whole entry): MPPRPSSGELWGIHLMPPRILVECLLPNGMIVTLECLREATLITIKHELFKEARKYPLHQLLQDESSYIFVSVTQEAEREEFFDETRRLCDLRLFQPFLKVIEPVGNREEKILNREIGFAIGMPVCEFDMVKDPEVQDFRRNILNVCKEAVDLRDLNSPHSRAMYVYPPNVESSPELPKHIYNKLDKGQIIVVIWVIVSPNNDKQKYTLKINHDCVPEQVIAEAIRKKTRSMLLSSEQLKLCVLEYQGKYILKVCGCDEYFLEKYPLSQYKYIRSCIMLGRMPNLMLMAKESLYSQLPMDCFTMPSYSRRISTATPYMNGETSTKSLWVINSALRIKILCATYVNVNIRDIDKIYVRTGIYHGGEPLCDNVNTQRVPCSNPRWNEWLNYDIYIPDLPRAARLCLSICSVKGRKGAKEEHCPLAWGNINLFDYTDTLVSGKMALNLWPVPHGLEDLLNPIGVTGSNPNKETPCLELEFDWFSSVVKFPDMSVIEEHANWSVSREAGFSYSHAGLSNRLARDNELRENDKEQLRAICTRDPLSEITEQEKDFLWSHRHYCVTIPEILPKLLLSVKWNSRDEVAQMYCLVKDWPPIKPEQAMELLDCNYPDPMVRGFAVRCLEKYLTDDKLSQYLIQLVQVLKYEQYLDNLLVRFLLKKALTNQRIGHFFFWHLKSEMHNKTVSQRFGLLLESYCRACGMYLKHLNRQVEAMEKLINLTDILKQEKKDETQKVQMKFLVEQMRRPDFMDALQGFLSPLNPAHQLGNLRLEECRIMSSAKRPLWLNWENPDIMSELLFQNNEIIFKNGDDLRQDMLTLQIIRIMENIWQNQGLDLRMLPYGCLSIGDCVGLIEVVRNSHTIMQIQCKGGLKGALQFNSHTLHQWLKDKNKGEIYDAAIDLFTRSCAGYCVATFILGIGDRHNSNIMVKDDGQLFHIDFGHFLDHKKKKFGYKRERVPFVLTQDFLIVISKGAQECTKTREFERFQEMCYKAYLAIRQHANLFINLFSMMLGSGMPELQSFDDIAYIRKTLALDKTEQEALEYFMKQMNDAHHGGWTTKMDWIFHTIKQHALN
T1 sequence (P23727 whole entry partner): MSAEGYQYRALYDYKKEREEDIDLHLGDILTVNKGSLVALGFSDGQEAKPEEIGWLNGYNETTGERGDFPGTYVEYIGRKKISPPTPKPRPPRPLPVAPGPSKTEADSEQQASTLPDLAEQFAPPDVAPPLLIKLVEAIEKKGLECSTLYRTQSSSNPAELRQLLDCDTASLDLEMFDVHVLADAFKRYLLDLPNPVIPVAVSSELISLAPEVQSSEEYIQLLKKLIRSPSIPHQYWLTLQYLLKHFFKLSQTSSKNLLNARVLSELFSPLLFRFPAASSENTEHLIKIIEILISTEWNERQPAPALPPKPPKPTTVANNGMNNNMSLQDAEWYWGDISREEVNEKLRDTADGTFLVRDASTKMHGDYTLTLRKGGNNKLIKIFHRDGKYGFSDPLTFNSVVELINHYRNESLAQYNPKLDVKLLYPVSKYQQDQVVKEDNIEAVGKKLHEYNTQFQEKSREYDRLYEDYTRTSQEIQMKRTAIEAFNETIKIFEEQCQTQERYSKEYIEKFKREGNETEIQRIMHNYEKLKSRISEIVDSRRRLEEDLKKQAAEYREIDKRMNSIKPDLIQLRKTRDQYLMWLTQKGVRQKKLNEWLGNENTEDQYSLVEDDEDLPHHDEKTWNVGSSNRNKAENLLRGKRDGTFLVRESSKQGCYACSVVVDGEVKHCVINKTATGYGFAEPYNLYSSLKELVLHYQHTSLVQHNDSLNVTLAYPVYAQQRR
Experimental: In another, preferred, method, PI 3-kinase was prepared from bovine brain. Two bovine brains (wet weight about 900 g) were obtained from a local slaughterhouse within minutes of slaughter, packed on ice, and homogenized within one hour. Brains were trimmed of excess fat and blood vessels and then homogenized using a Tekmar Tissuemizer (Cincinnati, Ohio) at 4° C. in 20 mM of Tris(pH 8.3) containing 250 mM of sucrose, 6 mM of β-mercaptoethanol, 1 μg/ml of leupeptin, 1 μg/ml of pepstatin A, 0.4 mM of PMSF, and 1 mM of MgCl2.
Following centrifugation for 60 minutes at 10,000×g, the DH of the supernatant (about 1200 mL) was lowered to 5.75 using dropwise addition of 1M acetic acid at 4° C. After stirring for an additional 15 minutes at 4° C., the solution was centrifuged for 60 minutes at 13,500×g. The supernatant was discarded. Pellets were resuspended in Buffer A (20 mM of Tris, pH 8.3, containing 6 mM of β-mercaptoethanol, 0.1 mM of ethylene glycol-bis(β-aminoethyl ether) N,N,N',N'-tetraacetic acid (EGTA), 1 μg/mL of leupeptin, 1 μg/mL of pepstatin A, and 1 mM of MgCl2), and loaded onto a Fast Flow Q Sepharose column (300 ml) at a flow rate of 5 mL/min at 4° C. After loading, the column was washed with 3 volumes of Buffer A containing 0.1M of KCl and the kinase was then eluted with a linear gradient of Buffer A/0.1M KCl to Buffer A/O.6M KCl at 3 mL/min over 7 volumes.
Fractions were assayed for PI 3-kinase activity using 10 μL of the fraction and phosphatidylinositol as substrate as described below. […] The PI 3-kinase pool was subjected to a 40% ammonium sulfate precipitation. Following centrifugation (60 minutes at 13,500×g), pellets were resuspended in Buffer B (10 mM of potassium phosphate, pH 7.4, containing 6 mM of β-mercaptoethanol, 1 μg/mL of leupeptin, 1 μg/mL of pepstatin A, and 1 mM of MgCl2), and loaded onto a 50 mL hydroxylapatite column (Calbiochem, Inc., La Jolla, Calif.) at 2.5 mL/minute. The column was washed with 150 mL Buffer B until the A280 baseline reached zero, and the kinase was then eluted with a linear gradient of 10-320 mM of KH2 PO4 at 1 mL/minute over 450 minutes.
Active fractions were pooled and then loaded at 3 mL/minute onto a MonoS column (8 ml) (Pharmacia, Inc., Piscataway, N.J.) equilibrated in Buffer C (50 mM of MES, pH 6.2, containing 6 mM of β-mercaptoethanol, 0.1 mM of EGTA, 1 μg/mL of leupeptin, 1 μg/mL of pepstatin A, and 1 mM of MgCl2). PI 3-kinase was eluted with a linear gradient of 0-0.4M KCl in Buffer C over 120 minutes. […] Therefore, the MonoS flow-through was concentrated by tangential flow filtration on a Mini-Ultrasette Omega 50 K membrane (Filtron, Inc., Northborough, Mass.) and diluted in Buffer C to lower the conductivity. The material was then reloaded onto the MonoS column using the above conditions. […] Two pools of phosphatidylinositol kinase activity were obtained in the gradient; each was assayed for PI 3-kinase and PI 4-kinase activity.
Pool I from the MonoS column was diluted with Buffer A and chromatographed on MonoQ (1 ml) and ehted with a gradient of 0-0.4M KCl in Buffer A. The final pool was assayed for PI 3-kinase and PI 4-kinase activity.
PI 3-kinase activity was measured as previously described by Matter, W. F., et al., Biochemical and Biophysical Research Communications, 186:624-631 (1992).

[2] = tested on: PI 3-kinase in v-sis NIH 3T3 cells; experiment: Assay of whole cell PI 3-kinase activity (PDGF-stimulated phosphatidylinositol-3-phosphate formation); format: cell-based; conditions: 1.3 μM, 100 ng/mL PDGF, 10 min contact before stimulation
Experimental: The cells were washed with phosphate-free DMEM and incubated in the same medium containing 0.1% fatty acid free bovine serum, albumin and 0.15 mCi/mL [^32 P]H3 PO4 (ICN Biomedicals, Irvine, Calif.) for 70 minutes. Inhibitor candidates were prepared using the above-stated procedure, and placed in contact with the cells for 10 minutes prior to their stimulation. The cells were stimulated with 100 ng/mL of PDGF for 10 minutes. To measure phosphatidylinositol-3-phosphates in the cells, the medium was removed and the cells washed once with phosphate buffered saline before adding 4 mL/flask of HCl:methanol (1:1 by volume). The cells were scraped from the flasks and total lipids were extracted by the method described by Folch, J., et al., J. Biol. Chem., 226:497-509 (1957). Deacylated lipids were prepared using methylamine via the method described by Clark, N. G., et al., BioChem J., 195: 301-306, (1981), and separated by HPLC using a 10 cm RAC II Partisil 5 SAX column (Whatman, Kent, U.K.) eluted with an NH4 H2 PO4 gradient at a flow of 0.8 mL/minute as described by Auger, K. R., et al., Methods in Inositide Research, pp. 159-166 [Irvine, R. F., Ed., Raven Press, Ltd., New York, N.Y. (1990)]. Detection of the eluting peaks was by a radioactive flow detector (Flo-One Beta, Model A515, Radiomatic Instruments, Meriden, Conn.). […]

phospholipase C = experiment: Effect on phospholipase C; format: biochemical
PI 4-kinase [3] = experiment: Effect on PI 4-kinase; format: biochemical
protein kinase C [4] = experiment: Effect on protein kinase C; format: biochemical
[5] = target: c-src protein tyrosine kinase (Homo sapiens, UniProt P12931); experiment: Effect on c-src protein tyrosine kinase; format: biochemical
c-src protein tyrosine kinase, sequence (P12931 whole entry): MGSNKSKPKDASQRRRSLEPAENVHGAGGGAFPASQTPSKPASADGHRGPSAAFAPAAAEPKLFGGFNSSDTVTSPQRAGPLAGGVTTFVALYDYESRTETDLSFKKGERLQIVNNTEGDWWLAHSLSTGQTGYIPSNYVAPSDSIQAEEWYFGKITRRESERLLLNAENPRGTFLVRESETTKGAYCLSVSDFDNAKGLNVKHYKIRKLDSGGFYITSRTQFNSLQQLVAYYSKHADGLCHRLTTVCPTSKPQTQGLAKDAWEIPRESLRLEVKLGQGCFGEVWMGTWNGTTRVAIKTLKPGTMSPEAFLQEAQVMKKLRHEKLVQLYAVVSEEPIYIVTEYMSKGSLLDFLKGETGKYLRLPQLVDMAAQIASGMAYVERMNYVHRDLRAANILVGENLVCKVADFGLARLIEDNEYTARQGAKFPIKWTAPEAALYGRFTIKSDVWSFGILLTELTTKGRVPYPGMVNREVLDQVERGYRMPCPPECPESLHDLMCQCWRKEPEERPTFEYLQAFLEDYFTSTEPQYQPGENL

protein kinase C [6] = conditions: Matter, et al.; cited from earlier work
PI 4-kinase [7] = conditions: Matter, et al.; cited from earlier work
PI 3-kinase = conditions: Matter, et al.; cited from earlier work
[8] = IC50 (ng/mL), 10 min preincubation, 20 μM ATP, 3% DMSO
[9] = IC50, molar value in parentheses, value printed in parentheses beside ng/mL
[10] = 10 min preincubation, 20 μM ATP, 3% DMSO, read-out: IC50 (ng/mL) (converted)

SMILES: COC[C@H]1OC(=O)c2coc3c2[C@@]1(C)C1=CC[C@]2(C)C(=O)CC[C@H]2[C@@H]1C3=O [II, Δ9,11-dehydrodesacetoxywortmannin]
- IC50 [1, 8]: 54 nM
- IC50 [1, 9]: 59 nM

SMILES: COC(=O)c1coc2c(O)c3c(c(C)c12)C=C[C@]1(C)C(=O)CC[C@@H]31 [IIIb, opened A-ring methyl ester of wortmannin]
- IC50 [1, 10]: 4600 nM

SMILES: COC[C@H]1OC(=O)c2coc3c2[C@@]1(C)C1=C(C3=O)[C@@H]2CCC(=O)[C@@]2(C)C[C@H]1OC(C)=O [Ia, wortmannin]
- inhibition of platelet derived growth factor stimulated phosphatidylinositol-3-phosphate formation in whole cells [2]: almost complete inhibition
- effect on phospholipase C (phospholipase C): no effect
- effect on PI 4-kinase (PI 4-kinase [3]): no effect
- IC50 [1, 8]: 4.2 nM
- IC50 [1, 9]: 4.2 nM
- effect on protein kinase C (protein kinase C [4]): no effect
- effect on c-src protein tyrosine kinase [5]: no effect

SMILES: COC[C@H]1OC(=O)c2coc3c2[C@@]1(C)C1=C(C3=O)[C@@H]2CCC(=O)[C@@]2(C)CC1 [Ib, 11-desacetoxywortmannin]
- IC50 [1, 10]: 16.7 nM
- IC50 ([1]; value printed in parentheses beside ng/mL, read-out: IC50, molar value in parentheses): 16.7 nM

SMILES: O=c1c(O)c(-c2ccc(O)c(O)c2)oc2cc(O)cc(O)c12 [quercetin]
- inhibition of protein kinase C (protein kinase C [6]): inhibit
- inhibition of PI 4-kinase (PI 4-kinase [7]): inhibit
- inhibition of PI 3-kinase (PI 3-kinase): inhibit
